Measurements: patent US20240116910A1, “Heterocycles as WIP1 Inhibitors” (PMV Pharmaceuticals, Inc., priority 2022, published 2024)
pIC50: −log10 of the molar value.

Experiments:
[1] = target: recombinant His-tag Wip1(2-420) protein (amino acids #2-420) (Homo sapiens (Human), UniProt O15297); assay: Wip1(2-420) phosphatase enzyme FDP assay; assay type: biochemical; conditions: fluorescein diphosphate (FDP) substrate, RT 2 hours, fluorescence Ex485/Em535; read-out: WIP1 (Truncated 2-420) FDP Assay: IC50
recombinant His-tag Wip1(2-420) protein (amino acids #2-420), sequence (O15297 2-420): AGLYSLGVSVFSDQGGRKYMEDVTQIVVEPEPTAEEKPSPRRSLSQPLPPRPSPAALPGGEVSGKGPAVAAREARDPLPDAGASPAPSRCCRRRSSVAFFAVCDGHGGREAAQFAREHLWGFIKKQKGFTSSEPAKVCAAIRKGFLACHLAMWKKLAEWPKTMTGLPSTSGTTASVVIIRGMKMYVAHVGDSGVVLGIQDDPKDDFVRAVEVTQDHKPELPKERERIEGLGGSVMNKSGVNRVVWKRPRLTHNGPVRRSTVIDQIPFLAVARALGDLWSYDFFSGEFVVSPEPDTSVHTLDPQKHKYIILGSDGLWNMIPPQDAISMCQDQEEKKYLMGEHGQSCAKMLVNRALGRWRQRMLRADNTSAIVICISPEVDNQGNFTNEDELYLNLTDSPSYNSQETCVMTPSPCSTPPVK

[2] = target: recombinant His-tag Wip1 full length protein (amino acids #1-605) (Homo sapiens (Human), UniProt O15297); assay: Wip1 full length phosphatase enzyme FDP assay; assay type: biochemical; conditions: fluorescein diphosphate (FDP) substrate, RT 2 hours, fluorescence Ex485/Em535
recombinant His-tag Wip1 full length protein (amino acids #1-605), sequence (O15297 whole entry): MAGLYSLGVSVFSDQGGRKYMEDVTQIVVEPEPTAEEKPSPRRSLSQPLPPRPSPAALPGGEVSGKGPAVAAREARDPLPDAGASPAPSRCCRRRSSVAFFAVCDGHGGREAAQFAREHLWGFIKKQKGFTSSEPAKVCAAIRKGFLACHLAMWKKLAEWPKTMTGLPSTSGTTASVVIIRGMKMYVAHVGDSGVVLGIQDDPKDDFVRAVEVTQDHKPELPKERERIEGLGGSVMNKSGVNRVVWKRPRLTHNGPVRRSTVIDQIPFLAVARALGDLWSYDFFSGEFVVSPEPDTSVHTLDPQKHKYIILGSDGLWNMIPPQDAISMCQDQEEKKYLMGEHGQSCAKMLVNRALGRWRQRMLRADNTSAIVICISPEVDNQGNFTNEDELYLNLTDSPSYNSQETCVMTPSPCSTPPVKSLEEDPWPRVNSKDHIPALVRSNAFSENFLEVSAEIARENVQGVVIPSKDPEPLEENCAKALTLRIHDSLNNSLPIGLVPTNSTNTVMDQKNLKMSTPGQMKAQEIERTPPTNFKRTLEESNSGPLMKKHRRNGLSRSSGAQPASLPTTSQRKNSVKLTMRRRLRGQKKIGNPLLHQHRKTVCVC

Compound | pIC50 [1] | pIC50 [2]
Cc1ncc(Cl)cc1N[C@@H](C)c1ccc(C(=O)N[C@@H](CC2CCCC2)C(=O)Nc2cnn(C3CCOCC3)c2)s1 [Compound 163, (2S)-2-({5-[(1S)-1-[(5-chloro-2-methylpyridin-3-yl)amino]ethyl]thiophen-2-yl}formamido)-3-cyclopentyl-N-[1-(oxan-4-yl)-1H-pyrazol-4-yl]propanamide] | 8.30 | 8.10
Cc1ncc(Cl)cc1N[C@@H](C)c1ccc(C(=O)N[C@@H](CC2CCCC2)C(=O)NC23CC(C(N)=O)(C2)C3)s1 [Compound 45, 3-[(2S)-2-({5-[(1S)-1-[(5-chloro-2-methylpyridin-3-yl)amino]ethyl]thiophen-2-yl}formamido)-3-cyclopentylpropanamido]bicyclo[1.1.1]pentane-1-carboxamide] | 8.15 | 8.05
Cc1ncc(Cl)cc1N[C@@H](C)c1ccc(C(=O)N[C@@H](CC2CCCC2)C(=O)NC23CC(F)(C2)C3)s1 [Compound 16, (2S)-2-({5-[(1S)-1-[(5-chloro-2-methylpyridin-3-yl)amino]ethyl]thiophen-2-yl}formamido)-3-cyclopentyl-N-{3-fluorobicyclo[1.1.1]pentan-1-yl}propanamide] | 8.15 | 8.00
Cc1ncc(Cl)cc1N[C@@H](C)c1ccc(C(=O)N[C@@H](CC2CCCC2)C(=O)NC2CC(C)C2)s1 (stereo partly drawn) [Compound 76, (2S)-2-({5-[(1S)-1-[(5-chloro-2-methylpyridin-3-yl)amino]ethyl]thiophen-2-yl}formamido)-3-cyclopentyl-N-(3-methylcyclobutyl)propanamide] | 8.15 | 8.05
Cc1ncc(Cl)cc1N[C@@H](C)c1ccc(C(=O)N[C@@H](CC2CCCC2)C(=O)NC2CCC(F)(F)C2)s1 (stereo partly drawn) [Compound 26, (2S)-2-({5-[(1S)-1-[(5-chloro-2-methylpyridin-3-yl)amino]ethyl]thiophen-2-yl}formamido)-3-cyclopentyl-N-(3,3-difluorocyclopentyl)propanamide] | 8.15 | 8.05
Cc1cc(NC(=O)[C@H](CC2CCCC2)NC(=O)c2ccc([C@H](C)Nc3cc(Cl)cnc3C)s2)ccn1 [Compound 73, (2S)-2-({5-[(1S)-1-[(5-chloro-2-methylpyridin-3-yl)amino]ethyl]thiophen-2-yl}formamido)-3-cyclopentyl-N-(2-methylpyridin-4-yl)propanamide] | 8.40 | 8.10
Cc1ccc(NC(=O)[C@H](CC2CCCC2)NC(=O)c2ccc([C@H](C)Nc3cc(Cl)cnc3C)s2)cn1 [Compound 53, (2S)-2-({5-[(1S)-1-[(5-chloro-2-methylpyridin-3-yl)amino]ethyl]thiophen-2-yl}formamido)-3-cyclopentyl-N-(6-methylpyridin-3-yl)propanamide] | 8.30 | 8.10
Cc1ncc(Cl)cc1N[C@H](C)c1ccc(C(=O)N[C@@H](CC2CCCC2)C(=O)NC23CC(C2)C3)s1 [Compound 12, (2S)-N-{bicyclo[1.1.1]pentan-1-yl}-2-({5-[(1R)-1-[(5-chloro-2-methylpyridin-3-yl)amino]ethyl]thiophen-2-yl}formamido)-3-cyclopentylpropanamide] | 6.83 | 6.45
